≈ marks a conversion by molar mass, not a printed value.

This assay relates to A2780. The experiment in a line: Cytotoxicity against human A2780 cells. It is filed as functional, cell-based.
For `CC(=O)Oc1cc(O)cc(CCCCCCCCCCCCCCCCc2cc(O)cc(OC(C)=O)c2)c1` [ONCOSTEMONOL F], the IC50 was found to be 9.5 µg/mL (≈ 18 µM).

Take `Oc1cc(O)cc(CCCCCCC/C=C\CCCCCCCc2cc(O)cc(O)c2)c1`: the IC50 was 10.2 µg/mL (≈ 23.1 µM).

For the compound `COc1cc(O)cc(CCCCCCC/C=C\CCCCCCCc2cc(O)cc(O)c2)c1` [ONCOSTEMONOL D], half-maximal inhibition (IC50) required 10 µg/mL (≈ 22 µM).

In turn, `CC(=O)Oc1cc(O)cc(CCCCCCC/C=C\CCCCCCCc2cc(O)cc(OC(C)=O)c2)c1` [ONCOSTEMONOL A] registered an IC50 of 9.4 µg/mL (≈ 17.9 µM). This IC50 and that of the compound before are within 1.5-fold of each other.

As for `Oc1cc(O)cc(CCCCC/C=C\CCCCCCCc2cc(O)cc(O)c2)c1`, the midpoint of inhibition, the IC50, lay at 9.8 µg/mL (≈ 23.8 µM).

The compound `CC(=O)Oc1cc(O)cc(CCCCCCC/C=C\CCCCCCCc2cc(O)cc(O)c2)c1` [ONCOSTEMONOL B] yielded an IC50 of 10.2 µg/mL (≈ 21.1 µM).

Compound `COc1cc(O)cc(CCCCCCC/C=C\CCCCCCCc2cc(OC)cc(OC)c2)c1` [ONCOSTEMONOL E] gave an IC50 of 9.8 µg/mL (≈ 20.3 µM).

`COc1cc(O)cc(CCCCCCC/C=C\CCCCCCCc2cc(O)cc(OC)c2)c1` [ONCOSTEMONOL C] had an IC50 of 9.8 µg/mL (≈ 20.9 µM).

In the case of `Oc1cc(O)cc(CCCCCCCCC/C=C\CCCCCCCCCc2cc(O)cc(O)c2)c1` [ONCOSTEMONOL G], the IC50 came out at 10.2 µg/mL (≈ 20.5 µM).

As for `Oc1cc(O)cc(CCCCCCC/C=C\CCCCCCCCCc2cc(O)cc(O)c2)c1` [ONCOSTEMONOL H], inhibition was half-maximal at 9.4 µg/mL (≈ 20.1 µM) (IC50).

For orientation: IC50 means the concentration that inhibits the measured activity by half. Low readings indicate greater potency, high ones weaker potency.

These data come from ChEMBL document CHEMBL1150131, “New cytotoxic bis 5-alkylresorcinol derivatives from the leaves of Oncostemon bojerianum from the Madagascar rainforest” (J Nat Prod, 2002).
